Laboratory results taken from US20040006070A1, “Intraspinal continuous infusion of midazolam hydrochloride for the treatment of pain” (priority 2002, published 2004).
Counter-ions that a name gives are not always drawn.

Test: Bloodwork: complete blood count, electrolytes, extended blood chemistry
Type: in vivo, sheep
Conditions: for Total Bili: ref 0.14-0.32; for Creatinine: ref 1-2.7; for Albumin: ref 2.4-3; for K+: ref 3.9-5.4; for Phos: ref 5-7.3; for Total Prot: ref 6-7.9
Procedure: Indirect blood pressure, pulse recording, pain testing (mechanical stimulus device, cold and warm water baths see description in procedure) and weight were taken on days 1, 3, 7, 15, 22, 29, 36, and 43. Venous blood samples (15 ml drawn from the jugular vein with Vacutainer brand blood collection tubes) for complete blood count, electrolytes, and extended blood chemistry were drawn on days 1, 15, and 43 (mild procedure only light hand restraint necessary).

**Q.** Which results are given for `Cc1ncc2n1-c1ccc(Cl)cc1C(c1ccccc1F)=NC2` [Midazolam, midazolam hydrochloride]?
**A.** MCH (sheep #498, 10 mg/day, Day 43): 9.3 pg; MCHC (sheep #498, 10 mg/day, Day 43): 30.3 g/dL; MCV (sheep #498, 10 mg/day, Day 43): 30.9 fL; Na+ (sheep #498, 10 mg/day, Day 43): 148 mEq/l; RBC (sheep #498, 10 mg/day, Day 43): 1.003e+07 µL⁻¹; WBC (sheep #498, 10 mg/day, Day 43): 9700 µL⁻¹; Total Bili (sheep #498, 10 mg/day, Day 43): 0.1 mg/dL; Creatinine (sheep #498, 10 mg/day, Day 43): 1.5 mg/dL; Albumin (sheep #498, 10 mg/day, Day 43): 3.6 g/dL; K+ (sheep #498, 10 mg/day, Day 43): 4.0 mEq/l; Phos (sheep #498, 10 mg/day, Day 43): 5.8 Mg/dl; Total Prot (sheep #498, 10 mg/day, Day 43): 6.1 g/dL; Platlet Count (sheep #498, 10 mg/day, Day 43, result in words): Ade-; ALT (sheep #518, 5 mg/day, Day 1): 12.0 U/L; AST (sheep #518, 5 mg/day, Day 1): 112 U/L; Alk Phos (sheep #518, 5 mg/day, Day 1): 157 U/L; BUN (sheep #518, 5 mg/day, Day 1): 15 mg/dL; CPK (sheep #518, 5 mg/day, Day 1): 148 U/L; Cholesterol (sheep #518, 5 mg/day, Day 1): 96 mg/dL; Differential Count: Eosin (sheep #518, 5 mg/day, Day 1): 1%; Differential Count: Lymph (sheep #518, 5 mg/day, Day 1): 29%; Differential Count: Seg (sheep #518, 5 mg/day, Day 1): 70%; Gamma GT (sheep #518, 5 mg/day, Day 1): 79 U/L; Glucose (sheep #518, 5 mg/day, Day 1): 8.8 mg/dL; Hct (sheep #518, 5 mg/day, Day 1): 35.0%; Hgb (sheep #518, 5 mg/day, Day 1): 12.2 g/dL; MCH (sheep #518, 5 mg/day, Day 1): 9.6 pg; MCHC (sheep #518, 5 mg/day, Day 1): 31.4 G/dl; MCV (sheep #518, 5 mg/day, Day 1): 30.6 fL; Na+ (sheep #518, 5 mg/day, Day 1): 154 mEq/l; Platlet Count (sheep #518, 5 mg/day, Day 1): 642000 µL⁻¹; RBC (sheep #518, 5 mg/day, Day 1): 1.144e+07 µL⁻¹; WBC (sheep #518, 5 mg/day, Day 1): 8400 µL⁻¹; Total Bili (sheep #518, 5 mg/day, Day 1): 0.2 mg/dL; Creatinine (sheep #518, 5 mg/day, Day 1): 1.1 mg/dL; Albumin (sheep #518, 5 mg/day, Day 1): 3.6 G/dl; K+ (sheep #518, 5 mg/day, Day 1): 4.9 mEq/l; Phos (sheep #518, 5 mg/day, Day 1): 7.2 mg/dL; Total Prot (sheep #518, 5 mg/day, Day 1): 7.0 G/dl; ALT (sheep #518, 5 mg/day, Day 3): 10.0 U/L; AST (sheep #518, 5 mg/day, Day 3): 99 U/L; Alk Phos (sheep #518, 5 mg/day, Day 3): 99 U/L; BUN (sheep #518, 5 mg/day, Day 3): 5 mg/dL; CPK (sheep #518, 5 mg/day, Day 3): 834 U/L; Cholesterol (sheep #518, 5 mg/day, Day 3): 87 mg/dL; Differential Count: Atyp lym (sheep #518, 5 mg/day, Day 3): 1%; Differential Count: Eosin (sheep #518, 5 mg/day, Day 3): 1%; Differential Count: Lymph (sheep #518, 5 mg/day, Day 3): 47%; Differential Count: Seg (sheep #518, 5 mg/day, Day 3): 51%; Gamma GT (sheep #518, 5 mg/day, Day 3): 79 U/L; Glucose (sheep #518, 5 mg/day, Day 3): 122 mg/dL; Hct (sheep #518, 5 mg/day, Day 3): 33.0%; Hgb (sheep #518, 5 mg/day, Day 3): 11.3 g/dL; MCH (sheep #518, 5 mg/day, Day 3): 9.3 pg; MCHC (sheep #518, 5 mg/day, Day 3): 30.1 G/dl; MCV (sheep #518, 5 mg/day, Day 3): 30.7 fL; Na+ (sheep #518, 5 mg/day, Day 3): 151 mEq/l; Platlet Count (sheep #518, 5 mg/day, Day 3): 546000 µL⁻¹; RBC (sheep #518, 5 mg/day, Day 3): 1.075e+07 µL⁻¹; WBC (sheep #518, 5 mg/day, Day 3): 6400 µL⁻¹; Total Bili (sheep #518, 5 mg/day, Day 3): 0.1 mg/dL; Creatinine (sheep #518, 5 mg/day, Day 3): 1.4 mg/dL; Albumin (sheep #518, 5 mg/day, Day 3): 3.8 G/dl; K+ (sheep #518, 5 mg/day, Day 3): 4.4 mEq/l; Phos (sheep #518, 5 mg/day, Day 3): 5.7 mg/dL; Total Prot (sheep #518, 5 mg/day, Day 3): 6.6 G/dl; ALT (sheep #518, 5 mg/day, Day 15): 13.0 U/L; AST (sheep #518, 5 mg/day, Day 15): 74 U/L; Alk Phos (sheep #518, 5 mg/day, Day 15): 100 U/L; BUN (sheep #518, 5 mg/day, Day 15): 13 mg/dL; CPK (sheep #518, 5 mg/day, Day 15): 172 U/L; Cholesterol (sheep #518, 5 mg/day, Day 15): 83 mg/dL; Differential Count: Eosin (sheep #518, 5 mg/day, Day 15): 5%; Differential Count: Lymph (sheep #518, 5 mg/day, Day 15): 62%
